{"source": "patent US10730911B2", "about": "“Backbone-cyclized peptidomimetics with GLP-1R modulating activity” (POLYPHOR AG, priority 2015, dated 2020)", "note": "Where a SMILES comes first, the peptide text is derived from it. [ ]: non-standard residue; d: D form. The star is where a group is joined. Trp(5-OH) = N[C@@H](Cc1c[nH]c2ccc(O)cc12)C(=O)O; Tyr(Ph) = N[C@@H](Cc1ccc(Oc2ccccc2)cc1)C(=O)O; His(π-Bn) = N[C@@H](Cc1cncn1Cc1ccccc1)C(=O)O; Phe(4-CN) = N#Cc1ccc(C[C@H](N)C(=O)O)cc1; 3Pal = N[C@@H](Cc1cccnc1)C(=O)O; Cit = NC(=O)NCCC[C@H](N)C(=O)O; Phg = N[C@H](C(=O)O)c1ccccc1; Ac6c = NC1(C(=O)O)CCCCC1; Ac5c = NC1(C(=O)O)CCCC1; Aib = CC(C)(N)C(=O)O; Bn = c1ccc(C*)cc1", "data": [{"target": "T1, human glucagon-like peptide-1 receptor (GLP-1R) (Homo sapiens, UniProt P43220)", "T1 construct": "host or cells: CHO chAMPion cells", "T1 sequence (P43220 24-463)": "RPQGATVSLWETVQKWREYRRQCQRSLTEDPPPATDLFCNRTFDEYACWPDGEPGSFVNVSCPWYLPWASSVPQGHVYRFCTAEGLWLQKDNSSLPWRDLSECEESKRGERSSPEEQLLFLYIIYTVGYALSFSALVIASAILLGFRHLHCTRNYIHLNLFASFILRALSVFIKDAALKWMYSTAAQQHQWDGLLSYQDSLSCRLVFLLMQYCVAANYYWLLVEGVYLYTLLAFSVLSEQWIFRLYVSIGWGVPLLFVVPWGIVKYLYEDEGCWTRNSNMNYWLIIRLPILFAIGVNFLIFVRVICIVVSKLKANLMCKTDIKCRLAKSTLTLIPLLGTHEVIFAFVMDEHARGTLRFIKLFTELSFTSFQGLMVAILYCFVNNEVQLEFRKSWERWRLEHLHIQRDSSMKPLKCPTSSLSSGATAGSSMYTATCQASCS", "assay": "Human GLP-1 receptor cell-based assay (flash luminescence, Target Activation phase)", "conditions": "CHO chAMPion cells stably co-expressing human GLP-1R, Photina and cAMP-activated calcium channel; agonist activity; normalization by forskolin at 10 μM; ^a) values from single experiment; read-out: EC50 (μM) Target Activation (TA)", "method_in_brief": "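CHO cells co-expressing human GLP-1R, photoprotein and a cAMP-gated Ca2+ channel, preloaded 4 h with coelenterazine and 500 μM IBMX. Compounds at 8 concentrations from 50 μM, quadruplicate; 30 min later 10 mM CaCl2 added and flash luminescence read. EC50 normalized to 10 μM forskolin or 3.16 nM GLP-1.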", "units": {"EC50": "µM"}, "values": [{"smiles": "C[C@@H]1NC(=O)[C@H](Cc2ccc(O)cc2)NC(=O)[C@H](CCC(N)=O)NC(=O)[C@H](Cc2ccc(Oc3ccccc3)cc2)NC(=O)[C@H](Cc2ccccc2)NC(=O)C2(CCCCC2)NC(=O)[C@H]2CCCN2C(=O)[C@H](CCCNC(=N)N)NC(=O)[C@H](CCC(=O)O)NC(=O)[C@H](Cc2c[nH]c3ccccc23)NC1=O", "note": "[compound 6, cyclo(-Phe-Tyr(Ph)-Gln-Tyr-Ala-Trp-Glu-Arg-^DPro-Chx-)] (cyclo(F[Tyr(Ph)]QYAWER[dP][Ac6c]))", "EC50": "0.19 ± 0.12"}, {"smiles": "CC(C)C[C@@H]1NC(=O)[C@H](Cc2c[nH]cn2)NC(=O)[C@H](Cc2ccccc2)NC(=O)C(C)(C)NC(=O)[C@H]2CCCN2C(=O)[C@H](Cc2ccc(O)cc2)NC(=O)[C@H](CCC(N)=O)NC(=O)[C@H](Cc2c[nH]c3ccccc23)NC(=O)[C@H](C)NC(=O)[C@H](Cc2ccc(O)cc2)NC1=O", "note": "[compound 51, cyclo(-Phe-His-Leu-Tyr-Ala-Trp-Gln-Tyr-^DPro-Aib-)] (cyclo(FHLYAWQY[dP][Aib]))", "EC50": 3.3}, {"smiles": "CC(C)C[C@@H]1NC(=O)[C@H](CCC(=O)O)NC(=O)[C@H](Cc2ccccc2)NC(=O)C2(CCCCC2)NC(=O)[C@H]2CCCN2C(=O)[C@H](Cc2ccc(O)cc2)NC(=O)[C@H](CCC(=O)O)NC(=O)[C@H](Cc2c[nH]c3ccccc23)NC(=O)[C@H](C)NC(=O)[C@H](Cc2ccc(C#N)cc2)NC1=O", "note": "[compound 37, cyclo(-Phe-Glu-Leu-Phe(4CN)-Ala-Trp-Glu-Tyr-^DPro-Chx-)] (cyclo(FEL[Phe(4-CN)]AWEY[dP][Ac6c]))", "EC50": 0.88}, {"smiles": "CC(C)C[C@@H]1NC(=O)[C@H](CCC(=O)O)NC(=O)[C@H](Cc2ccccc2)NC(=O)C2(CCCCC2)NC(=O)[C@H]2CCCN2C(=O)[C@H](Cc2ccc(O)cc2)NC(=O)[C@H](Cc2c[nH]c3ccc(O)cc23)NC(=O)[C@H](Cc2c[nH]c3ccccc23)NC(=O)[C@H](C)NC(=O)[C@H](Cc2ccc(O)cc2)NC1=O", "note": "[compound 28, cyclo(-Phe-Glu-Leu-Tyr-Ala-Trp-Trp(5OH)-Tyr-^DPro-Chx-)] (cyclo(FELYAW[Trp(5-OH)]Y[dP][Ac6c]))", "EC50": "1.2 ± 0.9"}, {"smiles": "C[C@@H]1NC(=O)[C@H](Cc2ccc(O)cc2)NC(=O)[C@H](CCC(N)=O)NC(=O)[C@H](Cc2cncn2Cc2ccccc2)NC(=O)[C@H](Cc2ccccc2)NC(=O)C2(CCCCC2)NC(=O)[C@H]2CCCN2C(=O)[C@H](Cc2ccc(O)cc2)NC(=O)[C@H](CCC(=O)O)NC(=O)[C@H](Cc2c[nH]c3ccccc23)NC1=O", "note": "[Ex. 4, cyclo(-Phe-His(Bn)-Gln-Tyr-Ala-Trp-Glu-Tyr-^DPro-Chx-)] (cyclo(F[His(π-Bn)]QYAWEY[dP][Ac6c]))", "EC50": "0.09 ± 0.02"}, {"smiles": "CC(C)C[C@@H]1NC(=O)[C@H](CC(C)C)NC(=O)[C@H](CCC(=O)O)NC(=O)[C@H](Cc2ccccc2)NC(=O)C2(CCCC2)NC(=O)[C@H]2CCCN2C(=O)[C@H](Cc2ccccc2)NC(=O)[C@H](CCC(=O)O)NC(=O)[C@H](Cc2c[nH]c3ccccc23)NC(=O)[C@H](C)NC1=O", "note": "[compound 44, cyclo(-Phe-Glu-Leu-Leu-Ala-Trp-Glu-Phe-^DPro-Cyp-)] (cyclo(FELLAWEF[dP][Ac5c]))", "EC50": "2.9 ± 0.7"}, {"smiles": "CC(C)C[C@@H]1NC(=O)[C@H](CCC(=O)O)NC(=O)[C@H](Cc2ccccc2)NC(=O)C2(CCCCC2)NC(=O)[C@H]2CCCN2C(=O)[C@H](Cc2c[nH]cn2)NC(=O)[C@H](CCC(=O)O)NC(=O)[C@H](Cc2c[nH]c3ccccc23)NC(=O)[C@H](C)NC(=O)[C@H](Cc2ccc(O)cc2)NC1=O", "note": "[compound 39, cyclo(-Phe-Glu-Leu-Tyr-Ala-Trp-G lu-H is-^DP ro-Chx-)] (cyclo(FELYAWEH[dP][Ac6c]))", "EC50": "1 ± 0.1"}, {"smiles": "C[C@@H]1NC(=O)[C@H](Cc2ccc(O)cc2)NC(=O)[C@H](CCC(N)=O)NC(=O)[C@H](Cc2ccc(OCc3ccccc3)cc2)NC(=O)[C@H](Cc2ccccc2)NC(=O)C2(CCCCC2)NC(=O)[C@H]2CCCN2C(=O)[C@H](Cc2ccc(O)cc2)NC(=O)[C@H](CCC(=O)O)NC(=O)[C@H](Cc2c[nH]c3ccccc23)NC1=O", "note": "[compound 5, cyclo(-Phe-Tyr(Bn)-Gln-Tyr-Ala-Trp-Glu-Tyr-^DPro-Chx-)] (cyclo(FY(Bn)QYAWEY[dP][Ac6c]))", "EC50": "0.15 ± 0.05"}, {"smiles": "CC(C)C[C@@H]1NC(=O)[C@H](CCC(=O)O)NC(=O)[C@H](Cc2ccccc2)NC(=O)C2(CCCCC2)NC(=O)[C@H]2CCCN2C(=O)[C@H](CCCNC(=N)N)NC(=O)[C@H](CCC(=O)O)NC(=O)[C@H](Cc2c[nH]c3ccccc23)NC(=O)[C@H](C)NC(=O)[C@H](Cc2ccc(O)cc2)NC1=O", "note": "[compound 42, cyclo(-Phe-Glu-Leu-Tyr-Ala-Trp-Glu-Arg-^DPro-Chx-)] (cyclo(FELYAWER[dP][Ac6c]))", "EC50": "2.2 ± 1"}, {"smiles": "C[C@@H]1NC(=O)[C@H](Cc2ccc(O)cc2)NC(=O)[C@H](CCC(N)=O)NC(=O)[C@H](Cc2cccnc2)NC(=O)[C@H](Cc2ccccc2)NC(=O)C2(CCCCC2)NC(=O)[C@H]2CCCN2C(=O)[C@H](Cc2ccc(O)cc2)NC(=O)[C@H](CCC(=O)O)NC(=O)[C@H](Cc2c[nH]c3ccccc23)NC1=O", "note": "[compound 2, cyclo(-Phe-3Pal-Gln-Tyr-Ala-Trp-Glu-Tyr-^DPro-Chx-)] (cyclo(F[3Pal]QYAWEY[dP][Ac6c]))", "EC50": "0.28 ± 0.26"}, {"smiles": "CC(C)C[C@@H]1NC(=O)[C@H](CCC(=O)O)NC(=O)[C@H](Cc2ccccc2)NC(=O)C2(CCCCC2)NC(=O)[C@H]2CCCN2C(=O)[C@H](c2ccccc2)NC(=O)[C@H](CCC(=O)O)NC(=O)[C@H](Cc2c[nH]c3ccccc23)NC(=O)[C@H](C)NC(=O)[C@H](Cc2ccc(O)cc2)NC1=O", "note": "[compound 50, cyclo(-Phe-Glu-Leu-Tyr-Ala-Trp-Glu-Phg-^DPro-Chx-)] (cyclo(FELYAWE[Phg][dP][Ac6c]))", "EC50": 2.4}, {"smiles": "COc1ccc(C[C@@H]2NC(=O)[C@H](CC(C)C)NC(=O)[C@H](CCC(=O)O)NC(=O)[C@H](Cc3ccccc3)NC(=O)C3(CCCCC3)NC(=O)[C@H]3CCCN3C(=O)[C@H](Cc3ccc(O)cc3)NC(=O)[C@H](CCC(=O)O)NC(=O)[C@H](Cc3c[nH]c4ccccc34)NC(=O)[C@H](C)NC2=O)cc1", "note": "[compound 29, cyclo(-Phe-Glu-Leu-Tyr(Me)-Ala-Trp-Glu-Tyr-^DPro-Chx-)] (cyclo(FELY(Me)AWEY[dP][Ac6c]))", "EC50": 0.62}, {"smiles": "C[C@@H]1NC(=O)[C@H](Cc2ccc(O)cc2)NC(=O)[C@H](CCC(N)=O)NC(=O)[C@H](Cc2ccc(Oc3ccccc3)cc2)NC(=O)[C@H](Cc2ccccc2)NC(=O)C2(CCCCC2)NC(=O)[C@H]2CCCN2C(=O)[C@H](Cc2ccc(O)cc2)NC(=O)[C@H](CCC(=O)O)NC(=O)[C@H](Cc2c[nH]c3ccccc23)NC1=O", "note": "[compound 7, cyclo(-Phe-Tyr(Ph)-Gln-Tyr-Ala-Trp-Glu-Tyr-^DPro-Chx-)] (cyclo(F[Tyr(Ph)]QYAWEY[dP][Ac6c]))", "EC50": "0.57 ± 0.58"}, {"smiles": "C[C@@H]1NC(=O)[C@H](Cc2ccc(O)cc2)NC(=O)[C@H](CCC(N)=O)NC(=O)[C@H](Cc2ccccc2)NC(=O)[C@H](Cc2ccccc2)NC(=O)C2(CCCCC2)NC(=O)[C@H]2CCCN2C(=O)[C@H](Cc2ccc(O)cc2)NC(=O)[C@H](CCC(=O)O)NC(=O)[C@H](Cc2c[nH]c3ccccc23)NC1=O", "note": "[Ex. 1, cyclo(-Phe-Phe-Gln-Tyr-Ala-Trp-Glu-Tyr-^DPro-Chx-)] (cyclo(FFQYAWEY[dP][Ac6c]))", "EC50": "0.09 ± 0.05"}, {"smiles": "CC(C)C[C@@H]1NC(=O)[C@H](CCC(=O)O)NC(=O)[C@H](Cc2ccccc2)NC(=O)C2(CCCCC2)NC(=O)[C@H]2CCCN2C(=O)[C@H](Cc2ccc(O)cc2)NC(=O)[C@H](CCCNC(N)=O)NC(=O)[C@H](Cc2c[nH]c3ccccc23)NC(=O)[C@H](C)NC(=O)[C@H](Cc2ccc(O)cc2)NC1=O", "note": "[compound 38, cyclo(-Phe-Glu-Leu-Tyr-Ala-Trp-Cit-Tyr-^DPro-Chx-)] (cyclo(FELYAW[Cit]Y[dP][Ac6c]))", "EC50": 0.93}, {"smiles": "CC(C)C[C@@H]1NC(=O)[C@H](CCC(N)=O)NC(=O)[C@H](Cc2c[nH]c3ccccc23)NC(=O)[C@H](Cc2ccccc2)NC(=O)C2(CCCC2)NC(=O)[C@H]2CCCN2C(=O)[C@H](Cc2ccccc2)NC(=O)[C@H](CCC(=O)O)NC(=O)[C@H](Cc2c[nH]c3ccccc23)NC(=O)[C@H](C)NC1=O", "note": "[compound 46, cyclo(-Phe-Trp-Gln-Leu-Ala-Trp-Glu-Phe-^DPro-Cyp-)] (cyclo(FWQLAWEF[dP][Ac5c]))", "EC50": "5.1 ± 1.4"}]}]}
